In ChEMBL document CHEMBL1201862, “PubChem BioAssay data set” (2004):
Calls of active or inactive are those of the source.

How the values were obtained:
[1] = cells; format: functional, cell-based
[2] = cells; format: functional, cell-based; remark: listed apart in the source
[3] = molecular target: Fructose-bisphosphate aldolase (Mycobacterium tuberculosis, UniProt P9WQA3); test: Fluorescence-based biochemical high throughput dose response assay for inhibitors of the fructose-bisphosphate aldolase (FBA) of M. tuberculosis.; format: functional
[4] = molecular target: Mu-type opioid receptor (Homo sapiens, UniProt P35372); format: functional, cell-based;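 note: U2OS cells with beta-arrestin recruitment to OPRM1 by beta-gal complementation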
[5] = molecular target: 5-hydroxytryptamine receptor 2A (Mus musculus, UniProt P35363); format: functional, cell-based;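 note: CHO-K1 cells with tagged receptor and beta-arrestin; agonist potency measured as compound-induced activation of the receptor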
[6] = AlphaScreen signal interference compounds, dose response, artefact control for ARNT-TACC3 interaction inhibitor project, biochemical, luminescence, cherry-pick (AID 651705); format: functional;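 note: AlphaScreen bead proximity signal that flags compounds interfering with the detection technology; potency reflects signal decrease which marks the compound as an assay artifact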
[7] = ARNT/TACC3 interaction disruptors, potency, confirmation, biochemical, AlphaScreen, cherry-picked samples (AID 651703); format: functional, Homo sapiens;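 note: His-tagged ARNT PAS-B domain paired with GST-TACC3 E629A dimer coactivator fragment; potency of inhibitors that break up the complex and lower AlphaScreen signal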
[8] = StAR promoter reporter inhibition counter-screen, dose response, counter-screen for LRH-1 inverse agonist project, cell-based, luminescence, luciferase reporter (AID 651969); format: functional
[9] = molecular target: Nuclear receptor subfamily 5 group A member 2 (Homo sapiens, UniProt O00482); format: functional, cell-based;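 note: HEK293T cells transfected with LRH-1 and a StAR promoter luciferase reporter; potency for inhibitors that lower LRH-1 driven reporter light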
[10] = molecular target: Steroidogenic factor 1 (Homo sapiens, UniProt Q13285); test: Counterscreen for inverse agonists of the liver receptor homolog-1 (LRH-1; NR5A2): Luminescence-based cell-based high throughput dose response assay to identify inverse agonists of the Steroidogenic Factor 1 Nuclear Receptor (SF1; NR5A1).; format: functional
[11] = molecular target: T1, Streptokinase A (Streptococcus pyogenes serotype M1, UniProt P10520); test: S. pyogenes streptokinase expression inhibitors, potency, dose response, plasminogen activation absorbance, OD405 (AID 1914); format: functional, Streptococcus pyogenes M1 GAS;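 note: secreted streptokinase activity via plasminogen activation per viability signal from cell pellet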
T1 sequence (P10520 whole entry): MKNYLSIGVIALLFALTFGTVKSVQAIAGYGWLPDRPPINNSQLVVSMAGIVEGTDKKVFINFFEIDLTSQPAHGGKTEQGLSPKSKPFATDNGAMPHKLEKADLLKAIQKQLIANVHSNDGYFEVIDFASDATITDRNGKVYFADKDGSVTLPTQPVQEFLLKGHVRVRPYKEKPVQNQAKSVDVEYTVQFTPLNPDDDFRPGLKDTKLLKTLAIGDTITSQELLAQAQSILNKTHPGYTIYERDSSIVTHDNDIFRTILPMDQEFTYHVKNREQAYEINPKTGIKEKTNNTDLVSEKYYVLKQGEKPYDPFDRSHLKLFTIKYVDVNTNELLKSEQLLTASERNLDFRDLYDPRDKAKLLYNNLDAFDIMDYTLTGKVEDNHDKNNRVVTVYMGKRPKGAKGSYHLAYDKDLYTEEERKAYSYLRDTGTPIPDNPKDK

[12] = system: Streptococcus sp. 'group A'; test: growth inhibition of control SK(-) GAS strain, dose response, counter-screen for streptokinase expression inhibitor project, luminescence, kanamycin, BacTiterGlo, confirmation (AID 1900); format: functional, organism-based
[13] = system: Streptococcus; test: Group A Streptococcus viability loss, dose response, counter-screen for streptokinase expression inhibitor project, luminescence, BacTiterGlo (AID 1915); format: functional, organism-based;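 note: potency for reduction of bacterial viability or growth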
[14] = cells; format: functional
[15] = microbe, parasite or virus in culture; format: functional; conditions: Mycobacterium tuberculosis
[16] = HEp-2 cell cytotoxicity, dose response, cytotoxicity control for RSV inhibitor project, HTS (AID 2410); format: functional; conditions: human respiratory syncytial virus
[17] = system: Vero; test: cells; format: functional; conditions: Chlorocebus sabaeus
[18] = molecular target: Long-chain-fatty-acid--AMP ligase FadD28 (Mycobacterium tuberculosis, UniProt P9WQ59); test: Fluorescence polarization aasay to screen for inhibitors that compete for the binding of FadD28 to a bisubstrate Measured in Biochemical System Using Plate Reader - 2147-01_Inhibitor_Dose_CherryPick_Activity.; format: functional, Mycobacterium tuberculosis H37Rv
[19] = molecular target: Photoreceptor-specific nuclear receptor (Homo sapiens, UniProt Q9Y5X4); format: functional, cell-based;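 note: CHO-S cells with Gal4-NCOR and VP16-NR2E3 two-hybrid luciferase reporter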
[20] = molecular target: T2, Probable nicotinate-nucleotide adenylyltransferase (Staphylococcus aureus (strain N315), UniProt P65502); format: functional, Staphylococcus aureus subsp. aureus N315;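 for IC50 Mean: confirmatory dose-response retesting of NadD inhibitor hits first found in an ultra-high-throughput screen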
[21] = molecular target: T2, Probable nicotinate-nucleotide adenylyltransferase; format: functional, Staphylococcus aureus subsp. aureus N315; conditions: read-out: IC50_Mean
[22] = Counterscreen for […] of the human trace amine associated receptor 1 (TAAR1): Fluorescence-based cell-based high throughput dose response assay to identify nonselective Ga16 agonists.; format: functional
[23] = Counterscreen for antagonists of the human trace amine associated receptor 1 (hTAAR1): Fluorescence-based cell-based high throughput dose response assay to identify nonselective Ga16 antagonists.; format: functional
[24] = molecular target: T3, Beta-2 adrenergic receptor (Homo sapiens, UniProt P07550); test: Dose response for HTS for Beta-2AR agonists via FAP method from Powderset1.; format: functional
[25] = molecular target: T3, Beta-2 adrenergic receptor; test: beta2AR agonists driving receptor internalization, dose response, cell-based, FAP fluorogen, flow cytometry, cherry pick 1 (AID 588763); format: functional
[26] = molecular target: SUMO-activating enzyme (Homo sapiens, UniProt Q9UBT2); test: SUMOylation inhibitor hit validation, confirmation, SUMOylation inhibitor project, biochemical, AlphaScreen (AID 2018); format: functional
[27] = molecular target: Albumin (Bos taurus, UniProt P02769); test: Counterscreen for inhibitors of T-cell receptor (TCR)-CD3 interaction: Fluorescence-based biochemical high throughput dose response assay to identify inhibitors of T-cell receptor (TCR)-CD3 interaction using a TAMRA-labeled BSA probe.; format: functional
[28] = cytotoxicity toward NIH3T3 fibroblasts, dose response, counter-screen, cell-based, ATP luminescence, mouse fibroblasts (AID 2010); format: functional;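 note: cells exposed to compound for about 90 hours before reading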
[29] = inhibitors of intracellular T. cruzi replication, confirmation, NIH3T3 host cells, beta-gal luminescence (AID 2044); format: functional, cell-based;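 note: intracellular parasites grown in NIH/3T3 mouse fibroblasts as host cells; luminescent beta-galactosidase reporter signal from transgenic T. cruzi replicating inside host cells; inhibitors lower the luminescence signal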
[30] = molecular target: T4, Zinc finger protein mex-5 (Caenorhabditis elegans, UniProt Q9XUB2); test: MEX-5/TCR-2 RNA interaction inhibitors, dose response, biochemical, C. elegans, fluorescence polarization (AID 1960)
T4 sequence (Q9XUB2 whole entry): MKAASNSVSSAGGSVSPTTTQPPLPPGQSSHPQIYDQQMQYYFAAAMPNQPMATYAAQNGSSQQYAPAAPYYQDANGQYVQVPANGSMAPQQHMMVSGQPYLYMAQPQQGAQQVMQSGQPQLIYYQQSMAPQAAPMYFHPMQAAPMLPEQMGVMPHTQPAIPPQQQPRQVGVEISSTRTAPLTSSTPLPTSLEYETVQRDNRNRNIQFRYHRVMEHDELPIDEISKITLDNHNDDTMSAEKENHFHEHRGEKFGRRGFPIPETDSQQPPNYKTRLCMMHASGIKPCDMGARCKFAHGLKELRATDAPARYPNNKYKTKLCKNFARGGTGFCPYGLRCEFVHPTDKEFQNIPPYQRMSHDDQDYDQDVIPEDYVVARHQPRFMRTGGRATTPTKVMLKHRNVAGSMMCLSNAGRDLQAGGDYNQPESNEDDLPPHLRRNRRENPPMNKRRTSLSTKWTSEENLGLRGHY

[31] = molecular target: T5, RNA-binding protein pos-1 (Caenorhabditis elegans, UniProt G5EF15); test: inhibitors of POS-1/mex-3 RNA binding, dose response, biochemical, fluorescence polarization (AID 1964);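 note: purified POS-1 fused to maltose binding protein made in E. coli; potency of compounds blocking POS-1 binding to fluorescent RNA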
T5 sequence (G5EF15 whole entry): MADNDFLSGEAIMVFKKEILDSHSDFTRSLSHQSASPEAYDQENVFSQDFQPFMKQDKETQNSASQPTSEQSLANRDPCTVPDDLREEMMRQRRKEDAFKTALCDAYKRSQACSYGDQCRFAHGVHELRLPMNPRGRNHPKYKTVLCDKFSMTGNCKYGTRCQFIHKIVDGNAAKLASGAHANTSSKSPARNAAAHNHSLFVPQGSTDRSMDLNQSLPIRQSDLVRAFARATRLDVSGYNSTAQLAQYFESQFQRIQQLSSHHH

T2 sequence (P65502 whole entry): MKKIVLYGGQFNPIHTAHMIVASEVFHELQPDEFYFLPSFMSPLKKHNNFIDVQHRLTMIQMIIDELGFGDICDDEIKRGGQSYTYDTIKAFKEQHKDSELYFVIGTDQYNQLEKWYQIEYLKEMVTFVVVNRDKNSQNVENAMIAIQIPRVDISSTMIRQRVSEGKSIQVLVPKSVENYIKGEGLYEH
Chain of Nuclear receptor subfamily 5 group A member 2 (O00482 whole entry): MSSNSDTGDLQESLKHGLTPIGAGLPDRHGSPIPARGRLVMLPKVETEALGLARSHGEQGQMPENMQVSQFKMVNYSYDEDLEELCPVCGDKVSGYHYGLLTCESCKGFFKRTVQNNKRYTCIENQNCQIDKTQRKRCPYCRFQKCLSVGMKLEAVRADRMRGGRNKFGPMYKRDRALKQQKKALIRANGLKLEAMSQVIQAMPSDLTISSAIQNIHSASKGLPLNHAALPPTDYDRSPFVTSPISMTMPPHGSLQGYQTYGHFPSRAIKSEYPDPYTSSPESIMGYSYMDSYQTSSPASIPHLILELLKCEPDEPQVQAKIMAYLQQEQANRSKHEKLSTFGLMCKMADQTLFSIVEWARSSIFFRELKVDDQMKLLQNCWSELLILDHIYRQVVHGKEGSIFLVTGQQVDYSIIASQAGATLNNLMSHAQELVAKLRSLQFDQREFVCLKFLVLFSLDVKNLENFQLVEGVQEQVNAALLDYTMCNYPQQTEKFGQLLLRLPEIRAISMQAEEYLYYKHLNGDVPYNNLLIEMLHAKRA
Chain of 5-hydroxytryptamine receptor 2A (P35363 whole entry): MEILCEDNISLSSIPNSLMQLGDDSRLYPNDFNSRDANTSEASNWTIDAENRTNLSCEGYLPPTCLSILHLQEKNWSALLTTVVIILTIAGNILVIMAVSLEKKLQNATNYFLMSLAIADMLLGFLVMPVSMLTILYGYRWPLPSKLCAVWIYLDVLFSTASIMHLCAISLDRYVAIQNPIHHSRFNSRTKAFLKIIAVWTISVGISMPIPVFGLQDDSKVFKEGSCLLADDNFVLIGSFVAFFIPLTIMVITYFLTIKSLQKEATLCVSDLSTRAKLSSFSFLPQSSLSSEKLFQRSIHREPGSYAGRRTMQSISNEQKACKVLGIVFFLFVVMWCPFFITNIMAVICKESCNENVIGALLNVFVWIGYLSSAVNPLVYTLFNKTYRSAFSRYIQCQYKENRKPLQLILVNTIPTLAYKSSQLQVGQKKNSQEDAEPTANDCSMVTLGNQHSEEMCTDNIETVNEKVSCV
Chain of Steroidogenic factor 1 (Q13285 whole entry): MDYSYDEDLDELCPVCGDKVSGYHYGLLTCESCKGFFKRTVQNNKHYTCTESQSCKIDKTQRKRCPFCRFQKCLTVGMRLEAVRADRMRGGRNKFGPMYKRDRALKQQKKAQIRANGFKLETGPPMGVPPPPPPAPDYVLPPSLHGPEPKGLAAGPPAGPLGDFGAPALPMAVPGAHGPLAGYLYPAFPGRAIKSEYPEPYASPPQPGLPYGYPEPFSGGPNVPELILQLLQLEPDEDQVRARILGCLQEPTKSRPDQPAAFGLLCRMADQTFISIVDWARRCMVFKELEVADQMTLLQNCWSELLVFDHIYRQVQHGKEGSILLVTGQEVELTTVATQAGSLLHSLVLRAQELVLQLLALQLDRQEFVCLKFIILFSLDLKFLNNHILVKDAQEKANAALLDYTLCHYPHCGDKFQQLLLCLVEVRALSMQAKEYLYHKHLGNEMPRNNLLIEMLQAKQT
T3 sequence (P07550 whole entry): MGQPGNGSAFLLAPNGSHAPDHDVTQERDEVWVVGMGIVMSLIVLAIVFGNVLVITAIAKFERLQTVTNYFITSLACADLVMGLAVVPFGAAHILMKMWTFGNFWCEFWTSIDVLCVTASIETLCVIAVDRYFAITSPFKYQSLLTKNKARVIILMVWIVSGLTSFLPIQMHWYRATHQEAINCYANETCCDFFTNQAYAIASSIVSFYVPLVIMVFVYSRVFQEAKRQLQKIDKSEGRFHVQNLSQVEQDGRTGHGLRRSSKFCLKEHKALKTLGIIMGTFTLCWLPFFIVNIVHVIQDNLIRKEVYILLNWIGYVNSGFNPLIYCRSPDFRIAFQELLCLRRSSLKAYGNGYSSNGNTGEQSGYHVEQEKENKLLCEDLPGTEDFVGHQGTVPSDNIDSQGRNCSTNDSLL
Chain of Fructose-bisphosphate aldolase (P9WQA3 whole entry): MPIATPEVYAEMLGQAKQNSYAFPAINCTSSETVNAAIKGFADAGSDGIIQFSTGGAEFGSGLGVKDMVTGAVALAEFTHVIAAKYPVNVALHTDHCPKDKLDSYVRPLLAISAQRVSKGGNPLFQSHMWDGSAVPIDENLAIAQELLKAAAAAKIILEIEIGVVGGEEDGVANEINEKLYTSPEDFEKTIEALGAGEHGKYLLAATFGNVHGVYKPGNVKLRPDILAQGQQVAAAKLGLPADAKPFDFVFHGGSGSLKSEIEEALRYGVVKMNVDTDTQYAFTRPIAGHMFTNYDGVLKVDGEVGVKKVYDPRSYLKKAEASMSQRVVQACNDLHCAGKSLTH
Chain of Mu-type opioid receptor (P35372 whole entry): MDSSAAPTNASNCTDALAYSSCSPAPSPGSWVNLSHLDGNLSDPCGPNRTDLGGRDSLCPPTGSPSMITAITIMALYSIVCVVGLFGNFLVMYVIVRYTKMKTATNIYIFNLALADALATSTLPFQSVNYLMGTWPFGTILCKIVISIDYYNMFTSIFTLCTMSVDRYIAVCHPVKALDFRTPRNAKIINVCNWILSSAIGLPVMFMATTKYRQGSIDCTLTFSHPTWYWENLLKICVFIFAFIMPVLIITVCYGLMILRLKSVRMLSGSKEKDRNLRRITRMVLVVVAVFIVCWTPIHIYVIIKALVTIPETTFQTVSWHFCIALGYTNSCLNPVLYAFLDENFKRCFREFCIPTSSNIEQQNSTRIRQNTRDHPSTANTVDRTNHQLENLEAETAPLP
Chain of Long-chain-fatty-acid--AMP ligase FadD28 (P9WQ59 whole entry, the tested form may be a part): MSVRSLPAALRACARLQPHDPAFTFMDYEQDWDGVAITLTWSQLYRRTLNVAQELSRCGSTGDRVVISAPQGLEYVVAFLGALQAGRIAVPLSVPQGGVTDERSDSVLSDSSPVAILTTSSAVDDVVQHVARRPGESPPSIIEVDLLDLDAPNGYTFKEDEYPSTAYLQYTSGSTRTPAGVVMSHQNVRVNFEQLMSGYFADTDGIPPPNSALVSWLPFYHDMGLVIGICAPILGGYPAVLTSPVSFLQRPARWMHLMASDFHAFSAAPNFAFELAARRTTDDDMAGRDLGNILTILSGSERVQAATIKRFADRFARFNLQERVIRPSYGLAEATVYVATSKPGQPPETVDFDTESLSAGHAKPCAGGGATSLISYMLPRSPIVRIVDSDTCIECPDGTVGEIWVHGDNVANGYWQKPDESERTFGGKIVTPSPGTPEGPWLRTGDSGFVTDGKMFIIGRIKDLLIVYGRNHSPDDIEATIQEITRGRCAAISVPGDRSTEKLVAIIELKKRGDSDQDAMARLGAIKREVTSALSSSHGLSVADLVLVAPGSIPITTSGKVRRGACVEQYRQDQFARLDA
Chain of Photoreceptor-specific nuclear receptor (Q9Y5X4 whole entry, the tested form may be a part): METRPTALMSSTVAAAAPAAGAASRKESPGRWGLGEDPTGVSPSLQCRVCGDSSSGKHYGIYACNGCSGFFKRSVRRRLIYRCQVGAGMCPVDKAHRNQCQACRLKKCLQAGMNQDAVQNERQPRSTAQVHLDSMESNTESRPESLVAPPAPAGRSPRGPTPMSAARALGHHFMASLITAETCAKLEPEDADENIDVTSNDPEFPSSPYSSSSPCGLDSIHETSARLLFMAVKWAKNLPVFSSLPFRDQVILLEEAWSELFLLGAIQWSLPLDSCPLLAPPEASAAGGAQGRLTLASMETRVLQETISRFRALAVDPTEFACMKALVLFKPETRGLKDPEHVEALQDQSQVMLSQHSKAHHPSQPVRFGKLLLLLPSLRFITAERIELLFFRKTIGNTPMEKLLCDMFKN
Chain of Albumin (P02769 whole entry): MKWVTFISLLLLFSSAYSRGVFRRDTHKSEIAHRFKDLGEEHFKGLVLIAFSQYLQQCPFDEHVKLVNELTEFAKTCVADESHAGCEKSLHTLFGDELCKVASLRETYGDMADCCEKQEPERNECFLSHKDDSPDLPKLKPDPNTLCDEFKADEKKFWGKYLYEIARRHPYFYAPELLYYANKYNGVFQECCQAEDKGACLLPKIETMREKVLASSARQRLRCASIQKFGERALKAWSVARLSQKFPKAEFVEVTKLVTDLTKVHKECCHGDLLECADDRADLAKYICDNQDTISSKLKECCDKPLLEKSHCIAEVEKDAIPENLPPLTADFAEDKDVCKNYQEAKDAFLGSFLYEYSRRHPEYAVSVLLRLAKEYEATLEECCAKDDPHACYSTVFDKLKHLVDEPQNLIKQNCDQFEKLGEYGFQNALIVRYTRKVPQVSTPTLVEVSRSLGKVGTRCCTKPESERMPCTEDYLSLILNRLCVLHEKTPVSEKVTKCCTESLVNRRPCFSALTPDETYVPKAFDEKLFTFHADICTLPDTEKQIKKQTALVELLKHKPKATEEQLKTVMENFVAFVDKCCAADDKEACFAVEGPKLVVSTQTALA

In the case of `O=C(O)C1CC=C(Cl)CC1C(=O)NCC1OCCc2ccccc21` (stereo not given), the EC50 [1] is reported as > 29.9 µM (inactive) and the IC50 [2] is reported as > 29.9 µM (inactive).
With `O=C(NC1CCCCC1)c1ccc2[nH]c(=O)c(=O)[nH]c2c1` the IC50 [3] was 2.36 µM (active).
With `C1=CC2CC1CC2CN1CCN(c2ccccc2)CC1` (stereo not given) the EC50 [4] was 92.5 µM (inactive) and the EC50 [5] was 76.1 µM (inactive).
With `COc1ccccc1NC(=O)CSc1ccc2nnc(-c3cccnc3)n2n1` the AC50 [6] was 127 µM (active) and the AC50 [7] was 118 µM (active).
In the case of `COc1cc(NC(=O)Cn2ccsc2=N)c(C)cc1[N+](=O)[O-]`, the IC50 [8] is reported as 35.9 µM (inactive), the IC50 [9] is reported as 35.9 µM (inactive) and the IC50 [10] is reported as 25.3 µM (inactive).
In the case of `Cc1c(Cl)cccc1-c1ccc(CNCc2ccccn2)o1`, the EC50 [11] is reported as > 150 µM (not active), the AC50 [6] is reported as 87.3 µM (active) and the EC50 [12] is reported as 13 µM (active). For the same compound, the EC50 [13] was 70.2 µM (active), the IC50 [14] was 0.55 µM (active) and the CC50 [15] was > 40 µM (active).
In the case of `Cc1cc(=O)oc2cc(OCCc3ccccc3)ccc12`, the IC50 [3] is reported as 1.35 µM (active), the CC50 [16] is reported as 35.1 µM (active) and the CC50 [17] is reported as > 25 µM (active).
In the case of `Cc1nc2ccccc2n1-c1ccccc1`, the AC50 [18] is reported as 29.5 µM (active).
In the case of `O=C(Nc1nnc(-c2cccs2)o1)c1cc(-c2ccccc2)nc2ccccc12`, the IC50 [19] is reported as 3.67 µM (active), the IC50 [20] is reported as 6.58 µM (active) and the IC50 [21] is reported as 27.6 µM (active).
In the case of `CCOCCOc1cccc(C(=O)NC(c2ccccc2)c2ccccc2)c1`, the EC50 [22] is reported as 10.3 µM (inactive) and the IC50 [23] is reported as 10 µM (inactive).
With `COc1ccc(CN2CCC(Oc3ccc(C(=O)N4CCCC4)cc3)CC2)c(F)c1` the EC50 [24] was 5.42 µM (active) and the EC50 [25] was 4.66 µM (active).
For `O=C(COc1ccc2c3c(c(=O)oc2c1)CCCC3)NCCN1CCOCC1`, the IC50 [8] was 35.8 µM (inactive), the IC50 [9] was 35.8 µM (inactive) and the IC50 [10] was 17 µM (inactive).
For `O=C(O)c1ccc(/C=N/NC(=O)c2ccc(CN3c4cccc5cccc(c45)S3(=O)=O)cc2)cc1`, the IC50 [20] was 5.94 µM (active), the IC50 [21] was 27.2 µM (active) and the IC50 [26] was 10.9 µM (active).
In the case of `CCCN[C@H]1CCc2nc(N)sc2C1`, the EC50 [4] is reported as 92.5 µM (inactive) and the EC50 [5] is reported as 0.00651 µM (active).
In the case of `O=C(N/N=C/c1cc(Cl)cc([N+](=O)[O-])c1O)c1ccc2c(c1)OCO2`, the IC50 [27] is reported as > 94.1 µM (inactive), the EC50 [28] is reported as 5.65 µM (active) and the EC50 [29] is reported as 1.1 µM (active). The EC50 [30] was 241 µM (active) and the EC50 [31] was 127 µM (active).
